Like-named read-outs stand apart in the source and are kept apart here.
What was measured:
[1] = Hypothermic activity, male mice (body temperature); type: in vivo, mice (CD1 Charles Rivers); conditions: for ED (-1 C body temperature): Mus musculus, male mice, read-out: Effective dose (-1° C.)
Protocol: (§1) The products have been utilized in the hydrochloride form.
The test is carried out on male mice (CD1 Charles Rivers), weighing 25-30 g, fasting for 6 hours.
The temperature of the body is noted by means of a thermocouple placed in the rectum to about 1.5 cm and connected to an electric temperature recorder. […]
The degree of hypothermia is evaluated as the difference between the treated animals and the controls, and the dose necessary to reduce the body temperature by 1° C. is determined.
The duration of action of the products has been evaluated by using the dose which reduces the body temperature by 1° to 1.5° C.

[2] = test system: ileum isolated from guinea-pig; assay: Test on ileum isolated from guinea-pig (contraction, agonist activity); type: cell-based; conditions: Cavia porcellus, Tyrode's solution, 37° C., read-out: pD2 (negative logarithm of the dose which produces 50% of the maximum effect) (converted)
Protocol: as §1
Pieces of the ileum are removed from guinea-pigs killed by decapitation. The isolated ileum is placed in 10 cm^3 of Tyrode's solution at 37° C. and aerated with a mixture of oxygen (95%) and carbon dioxide gas (5%). The contractions due to the products are recorded by means of a detector connected to a polygraph. The products to be tested are added at concentrations between 1.10^-3 M/l and 1.10^-8 M/l.
The products presenting a contraction effect are tested relative to atropine and hexamethonium to establish whether the activity is of the "muscarine" or "nicotine" type.
The agonist activity is expressed in pD2 (negative logarithm of the dose which produces 50% of the maximum effect.

[3] = Diarrhoeic activity, oral, male mice; type: in vivo, mice (CD1, Charles Rivers); conditions: Mus musculus, read-out: ED50 (dose which caused a diarrhoea in 50% of the animals)
Protocol: as §1
The test is carried out on male mice (CD1, Charles Rivers) weighing 25 to 30 g, fasting for 6 hours.
The control animals receive only the excipient.
After treatment, the animals are put separately in cages the base of which is covered with blotting paper and are put under observation for 30, 60, 120 and 180 minutes.
The sheets of absorbent paper are changed after each observation.
1: feces slightly soft with or without humid aureola.
2: feces slightly soft with presence of a well defined humid circle.
3: feces soft with presence of a large humid circle.
4: feces without consistency with presence of a very large humid circle.

[4] = test system: central cholinergic system; conditions: cited from earlier work
[5] = intravenous route; cited from earlier work
[6] = Acute toxicity, oral, male mice; set-up: species or system mice (CD1 Charles Rivers); conditions: mouse, in vivo, mortality during 7 days
Protocol: as §1
The test was carried out on male mice (CD1 Charles Rivers) of 22 to 24 g, fasting for 16 hours. […] The mortality is noted during the 7 days following the treatment.

COC(=O)C1=CCCN(C)C1 [Arecoline HBr, reference compound]
Variation of the Body Temperature ([1]; 3.5 mg/kg s.c., 0 min): -0.1 °C
Variation of the Body Temperature ([1]; 3.5 mg/kg s.c., 30 min): -1.5 °C
Variation of the Body Temperature ([1]; 3.5 mg/kg s.c., 60 min): -0.1 °C
Variation of the Body Temperature ([1]; 3.5 mg/kg s.c., 120 min): +0.2 °C
Variation of the Body Temperature ([1]; 3.5 mg/kg s.c., 180 min): +0.2 °C
Variation of the Body Temperature ([1]; 200 mg/kg p.o., 0 min): +0.1 °C
Variation of the Body Temperature ([1]; 200 mg/kg p.o., 30 min): -1.1 °C
Variation of the Body Temperature ([1]; 200 mg/kg p.o., 60 min): -1.0 °C
Variation of the Body Temperature ([1]; 200 mg/kg p.o., 120 min): -0.2 °C
Variation of the Body Temperature ([1]; 200 mg/kg p.o., 180 min): -0.1 °C

COC(=O)C1=CCCN(C)C1 [Arecoline, reference compound]
EC50 [2]: 0.331 µM
ED50 [3]: 35 mg/kg
ED (-1 C body temperature) ([1]; po, per os): 194 mg/kg
ED (-1 C body temperature) ([1]; sc, s.c.): 3 mg/kg
activity by oral route [4]: very weak activity by oral route
effect on patients having a memory defect [5]: positive effect on patients having a memory defect

CC(=NO)C1=CCCNC1 [Example 1, 3-acetyl-1,2,5,6-tetrahydropyridine-oxime]
LD50 at 168 h [6]: 350 mg/kg
EC50 [2]: 5.62 µM
ED50 [3]: 5 mg/kg
Variation of the Body Temperature ([1]; 10 mg/kg p.o., 0 min): 0 °C
Variation of the Body Temperature ([1]; 10 mg/kg p.o., 30 min): -0.7 °C
Variation of the Body Temperature ([1]; 10 mg/kg p.o., 60 min): -1.0 °C
Variation of the Body Temperature ([1]; 10 mg/kg p.o., 120 min): -0.2 °C
Variation of the Body Temperature ([1]; 10 mg/kg p.o., 180 min): +0.1 °C
Variation of the Body Temperature ([1]; 10 mg/kg s.c., 0 min): 0 °C
Variation of the Body Temperature ([1]; 10 mg/kg s.c., 30 min): -0.6 °C
Variation of the Body Temperature ([1]; 10 mg/kg s.c., 60 min): -0.8 °C
Variation of the Body Temperature ([1]; 10 mg/kg s.c., 120 min): -0.2 °C
Variation of the Body Temperature ([1]; 10 mg/kg s.c., 180 min): 0 °C
ED (-1 C body temperature) ([1]; po, per os): 9 mg/kg
ED (-1 C body temperature) ([1]; sc, s.c.): 11 mg/kg

CON=C(C)C1=CCCN(C)C1 [Example 2, 1-methyl-3-acetyl-1,2,5,6-tetrahydropyridine-O-methyl-oxime]
LD50 at 168 h [6]: 350 mg/kg
EC50 [2]: 14.1 µM
ED50 [3]: > 100 mg/kg
Variation of the Body Temperature ([1]; 20 mg/kg p.o., 0 min): +0.1 °C
Variation of the Body Temperature ([1]; 20 mg/kg p.o., 30 min): -1.3 °C
Variation of the Body Temperature ([1]; 20 mg/kg p.o., 60 min): -1.3 °C
Variation of the Body Temperature ([1]; 20 mg/kg p.o., 120 min): -0.9 °C
Variation of the Body Temperature ([1]; 20 mg/kg p.o., 180 min): 0 °C
Variation of the Body Temperature ([1]; 40 mg/kg s.c., 0 min): +0.1 °C
Variation of the Body Temperature ([1]; 40 mg/kg s.c., 30 min): -1.0 °C
Variation of the Body Temperature ([1]; 40 mg/kg s.c., 60 min): -1.4 °C
Variation of the Body Temperature ([1]; 40 mg/kg s.c., 120 min): -1.1 °C
Variation of the Body Temperature ([1]; 40 mg/kg s.c., 180 min): -0.8 °C
ED (-1 C body temperature) ([1]; po, per os): 12 mg/kg
ED (-1 C body temperature) ([1]; sc, s.c.): 25 mg/kg

CON=C(C)C1=CCCNC1 [Example 3, 3-acetyl-1,2,5,6-tetrahydropyridine-O-methyl-oxime]
LD50 at 168 h [6]: 125 mg/kg
EC50 [2]: 0.0316 µM
ED50 [3]: 0.85 mg/kg
Variation of the Body Temperature ([1]; 1 mg/kg p.o., 0 min): +0.1 °C
Variation of the Body Temperature ([1]; 1 mg/kg p.o., 30 min): -1.1 °C
Variation of the Body Temperature ([1]; 1 mg/kg p.o., 60 min): -1.0 °C
Variation of the Body Temperature ([1]; 1 mg/kg p.o., 120 min): -0.1 °C
Variation of the Body Temperature ([1]; 1 mg/kg p.o., 180 min): -0.1 °C
Variation of the Body Temperature ([1]; 1 mg/kg s.c., 0 min): +0.1 °C
Variation of the Body Temperature ([1]; 1 mg/kg s.c., 30 min): -1.0 °C
Variation of the Body Temperature ([1]; 1 mg/kg s.c., 60 min): -0.8 °C
Variation of the Body Temperature ([1]; 1 mg/kg s.c., 120 min): +0.1 °C
Variation of the Body Temperature ([1]; 1 mg/kg s.c., 180 min): +0.1 °C
ED (-1 C body temperature) ([1]; po, per os): 0.87 mg/kg
ED (-1 C body temperature) ([1]; sc, s.c.): 0.91 mg/kg

CON=C(C)C1=CCCN(O)C1 [Example 12, 1-N-hydroxyl-3-acetyl-1,2,5,6-tetrahydropyridine-O-methyl-oxime]
LD50 at 168 h [6]: 175 mg/kg
EC50 [2]: 4.07 µM
ED50 [3]: 1 mg/kg
Variation of the Body Temperature ([1]; 1 mg/kg p.o., 0 min): 0 °C
Variation of the Body Temperature ([1]; 1 mg/kg p.o., 30 min): -1.3 °C
Variation of the Body Temperature ([1]; 1 mg/kg p.o., 60 min): -1.1 °C
Variation of the Body Temperature ([1]; 1 mg/kg p.o., 120 min): 0 °C
Variation of the Body Temperature ([1]; 1 mg/kg p.o., 180 min): 0 °C
Variation of the Body Temperature ([1]; 1 mg/kg s.c., 0 min): -0.1 °C
Variation of the Body Temperature ([1]; 1 mg/kg s.c., 30 min): -1.4 °C
Variation of the Body Temperature ([1]; 1 mg/kg s.c., 60 min): -1.3 °C
Variation of the Body Temperature ([1]; 1 mg/kg s.c., 120 min): +0.1 °C
Variation of the Body Temperature ([1]; 1 mg/kg s.c., 180 min): 0 °C
ED (-1 C body temperature) ([1]; po, per os): 0.77 mg/kg
ED (-1 C body temperature) ([1]; sc, s.c.): 0.72 mg/kg
